According to article PMC7926623 (Marine Drugs, 2021):

Biological target: rat α6/α3β2β3 nAChR (Rattus norvegicus, UniProt P04757+P12390+P43143)
Format: cell-based

Sequence of rat α6/α3β2β3 nAChR (P04757 whole entry, looked up): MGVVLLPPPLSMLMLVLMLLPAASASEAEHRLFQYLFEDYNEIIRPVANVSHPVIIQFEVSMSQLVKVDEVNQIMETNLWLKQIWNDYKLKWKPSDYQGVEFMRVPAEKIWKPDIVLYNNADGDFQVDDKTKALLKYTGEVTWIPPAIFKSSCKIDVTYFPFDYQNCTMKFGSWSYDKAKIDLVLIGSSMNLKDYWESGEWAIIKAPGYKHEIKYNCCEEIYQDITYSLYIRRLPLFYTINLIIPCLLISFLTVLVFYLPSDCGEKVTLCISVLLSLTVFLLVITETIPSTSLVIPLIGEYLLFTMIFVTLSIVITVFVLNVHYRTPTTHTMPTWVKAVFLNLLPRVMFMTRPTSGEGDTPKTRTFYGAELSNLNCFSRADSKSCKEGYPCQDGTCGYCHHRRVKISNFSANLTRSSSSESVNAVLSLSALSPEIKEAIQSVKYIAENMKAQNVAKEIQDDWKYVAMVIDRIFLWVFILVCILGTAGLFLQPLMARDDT
Sequence of rat α6/α3β2β3 nAChR (P12390 whole entry, looked up): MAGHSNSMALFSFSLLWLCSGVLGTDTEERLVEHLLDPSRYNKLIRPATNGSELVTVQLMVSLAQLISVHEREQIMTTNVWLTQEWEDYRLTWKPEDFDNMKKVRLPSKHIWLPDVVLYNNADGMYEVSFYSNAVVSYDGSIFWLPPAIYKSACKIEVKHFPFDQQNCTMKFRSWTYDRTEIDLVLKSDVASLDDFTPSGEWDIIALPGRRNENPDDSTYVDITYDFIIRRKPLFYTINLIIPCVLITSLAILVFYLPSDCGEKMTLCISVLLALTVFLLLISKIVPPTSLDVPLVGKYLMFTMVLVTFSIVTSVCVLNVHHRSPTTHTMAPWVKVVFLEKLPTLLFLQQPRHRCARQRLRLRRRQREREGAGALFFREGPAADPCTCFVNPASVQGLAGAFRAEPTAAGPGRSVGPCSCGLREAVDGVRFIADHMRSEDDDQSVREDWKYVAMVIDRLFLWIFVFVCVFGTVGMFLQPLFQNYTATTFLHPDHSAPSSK
Sequence of rat α6/α3β2β3 nAChR (P43143 whole entry, looked up): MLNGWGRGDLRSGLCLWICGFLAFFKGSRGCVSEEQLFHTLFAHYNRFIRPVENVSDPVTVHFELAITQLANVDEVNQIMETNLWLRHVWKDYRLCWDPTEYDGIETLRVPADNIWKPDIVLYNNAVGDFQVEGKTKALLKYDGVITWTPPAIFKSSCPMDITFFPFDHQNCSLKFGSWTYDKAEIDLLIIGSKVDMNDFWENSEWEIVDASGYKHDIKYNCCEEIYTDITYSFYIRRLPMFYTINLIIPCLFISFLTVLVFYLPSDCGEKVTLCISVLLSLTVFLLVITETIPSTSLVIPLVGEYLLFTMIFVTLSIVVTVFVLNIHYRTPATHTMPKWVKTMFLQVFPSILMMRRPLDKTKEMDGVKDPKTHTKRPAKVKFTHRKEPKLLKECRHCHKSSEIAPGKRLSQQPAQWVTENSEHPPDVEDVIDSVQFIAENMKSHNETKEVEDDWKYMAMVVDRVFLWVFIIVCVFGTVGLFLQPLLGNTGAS

α-Conotoxin TxIB
inhibition on α6/α3β2β3 nAChR: about 88%
